Here are results for 44 compounds from ChEMBL document CHEMBL5291721, “A preclinical secondary pharmacology resource illuminates target-adverse drug reaction associations of marketed drugs” (Nat Commun, 2023).

The target in assay [1] is Beta-2 adrenergic receptor (Homo sapiens, UniProt P07550). In kind it is functional, cell-based.
Assay [2] deals with T1, Androgen receptor (Rattus norvegicus, UniProt P15207).
T1 sequence (P15207 whole entry): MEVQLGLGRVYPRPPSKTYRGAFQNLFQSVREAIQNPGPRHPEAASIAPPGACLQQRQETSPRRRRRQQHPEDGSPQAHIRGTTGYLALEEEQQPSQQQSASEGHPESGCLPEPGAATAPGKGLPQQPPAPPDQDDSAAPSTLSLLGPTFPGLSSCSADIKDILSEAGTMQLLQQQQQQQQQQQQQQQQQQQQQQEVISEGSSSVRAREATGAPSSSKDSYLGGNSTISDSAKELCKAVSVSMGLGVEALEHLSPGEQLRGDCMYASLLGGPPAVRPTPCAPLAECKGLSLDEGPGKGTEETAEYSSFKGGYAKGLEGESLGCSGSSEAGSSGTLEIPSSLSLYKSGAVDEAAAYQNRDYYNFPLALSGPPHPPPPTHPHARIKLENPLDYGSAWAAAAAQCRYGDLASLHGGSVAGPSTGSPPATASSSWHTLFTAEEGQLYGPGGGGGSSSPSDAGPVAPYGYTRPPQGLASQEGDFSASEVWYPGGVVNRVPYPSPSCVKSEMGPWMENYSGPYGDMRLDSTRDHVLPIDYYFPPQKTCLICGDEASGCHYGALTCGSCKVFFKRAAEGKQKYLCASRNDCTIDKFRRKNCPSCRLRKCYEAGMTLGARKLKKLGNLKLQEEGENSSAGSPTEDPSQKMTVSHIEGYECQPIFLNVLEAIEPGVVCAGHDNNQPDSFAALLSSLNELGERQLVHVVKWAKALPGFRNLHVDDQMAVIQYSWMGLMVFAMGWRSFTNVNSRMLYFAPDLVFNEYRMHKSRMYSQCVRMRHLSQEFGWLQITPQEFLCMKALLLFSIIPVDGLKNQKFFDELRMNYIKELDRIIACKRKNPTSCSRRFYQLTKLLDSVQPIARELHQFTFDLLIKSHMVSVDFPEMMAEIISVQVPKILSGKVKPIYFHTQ
In kind it is functional.

In assay [3] the target is T2, Alpha-1A adrenergic receptor (Homo sapiens, UniProt P35348).
T2 sequence (P35348 whole entry): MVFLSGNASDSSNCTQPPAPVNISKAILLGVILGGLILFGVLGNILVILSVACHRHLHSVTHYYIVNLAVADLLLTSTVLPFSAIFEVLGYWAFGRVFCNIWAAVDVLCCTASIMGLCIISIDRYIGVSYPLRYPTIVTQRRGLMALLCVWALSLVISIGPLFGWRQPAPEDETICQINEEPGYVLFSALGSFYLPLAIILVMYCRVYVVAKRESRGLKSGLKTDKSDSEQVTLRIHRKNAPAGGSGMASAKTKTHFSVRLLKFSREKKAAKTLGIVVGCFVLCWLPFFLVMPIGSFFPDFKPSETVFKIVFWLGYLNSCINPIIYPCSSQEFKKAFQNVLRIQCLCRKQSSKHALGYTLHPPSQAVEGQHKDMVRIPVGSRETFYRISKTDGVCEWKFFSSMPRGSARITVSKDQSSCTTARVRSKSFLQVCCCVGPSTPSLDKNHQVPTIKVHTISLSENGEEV

Assay [4] has as its target Beta-3 adrenergic receptor (Homo sapiens, UniProt P13945).
In assay [5] the target is Gamma-aminobutyric acid receptor subunit alpha-1/alpha-2/beta-2/gamma-2 (Homo sapiens, UniProt P14867+P18507+P47869+P47870). In kind it is functional, cell-based.
Assay [6] concerns the target T3, Peroxisome proliferator-activated receptor gamma (Homo sapiens, UniProt P37231).
T3 sequence (P37231 whole entry): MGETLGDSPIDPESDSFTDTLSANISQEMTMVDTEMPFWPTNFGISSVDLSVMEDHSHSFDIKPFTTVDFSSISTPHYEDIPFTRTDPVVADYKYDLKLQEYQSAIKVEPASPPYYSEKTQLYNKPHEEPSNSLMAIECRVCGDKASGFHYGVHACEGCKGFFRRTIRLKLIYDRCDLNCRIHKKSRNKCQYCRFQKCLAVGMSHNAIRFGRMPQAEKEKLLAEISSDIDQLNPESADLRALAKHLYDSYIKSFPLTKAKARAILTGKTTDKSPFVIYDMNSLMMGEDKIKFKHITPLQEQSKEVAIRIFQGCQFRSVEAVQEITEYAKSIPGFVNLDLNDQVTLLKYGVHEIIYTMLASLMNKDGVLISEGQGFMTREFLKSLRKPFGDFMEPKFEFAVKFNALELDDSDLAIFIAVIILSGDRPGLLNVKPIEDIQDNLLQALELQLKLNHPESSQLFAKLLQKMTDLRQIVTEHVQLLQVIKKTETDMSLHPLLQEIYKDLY
In kind it is functional.

Assay [7] addresses D(1A) dopamine receptor (Homo sapiens, UniProt P21728).

Values joined by “and” are separate entries in the source; they are usually repeats but may differ in a detail not shown here. Identical values can stand only once.
Note: assay procedure not described here.

D(1A) dopamine receptor, sequence (P21728 whole entry): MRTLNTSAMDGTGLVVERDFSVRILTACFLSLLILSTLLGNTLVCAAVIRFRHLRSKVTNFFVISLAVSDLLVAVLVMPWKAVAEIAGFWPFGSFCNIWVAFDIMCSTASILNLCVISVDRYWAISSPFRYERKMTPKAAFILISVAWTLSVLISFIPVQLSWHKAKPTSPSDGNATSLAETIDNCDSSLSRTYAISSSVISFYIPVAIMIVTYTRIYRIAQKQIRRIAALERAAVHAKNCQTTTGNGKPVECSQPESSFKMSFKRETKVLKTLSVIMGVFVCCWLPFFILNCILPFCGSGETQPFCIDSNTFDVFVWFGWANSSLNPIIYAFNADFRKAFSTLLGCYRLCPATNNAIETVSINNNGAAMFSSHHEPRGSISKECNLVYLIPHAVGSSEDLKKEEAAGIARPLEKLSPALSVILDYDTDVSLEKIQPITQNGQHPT
Beta-3 adrenergic receptor, sequence (P13945 whole entry): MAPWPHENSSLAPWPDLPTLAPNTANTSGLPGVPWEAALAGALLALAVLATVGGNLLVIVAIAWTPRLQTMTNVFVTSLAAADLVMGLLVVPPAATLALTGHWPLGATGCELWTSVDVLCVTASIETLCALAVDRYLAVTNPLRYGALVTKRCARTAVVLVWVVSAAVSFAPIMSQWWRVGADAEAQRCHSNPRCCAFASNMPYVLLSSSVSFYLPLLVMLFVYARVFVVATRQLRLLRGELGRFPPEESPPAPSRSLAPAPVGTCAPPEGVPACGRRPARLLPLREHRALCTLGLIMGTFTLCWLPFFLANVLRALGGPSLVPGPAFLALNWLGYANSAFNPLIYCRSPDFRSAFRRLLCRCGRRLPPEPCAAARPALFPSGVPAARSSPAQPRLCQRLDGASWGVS
Gamma-aminobutyric acid receptor subunit alpha-1/alpha-2/beta-2/gamma-2, sequence (P14867 whole entry): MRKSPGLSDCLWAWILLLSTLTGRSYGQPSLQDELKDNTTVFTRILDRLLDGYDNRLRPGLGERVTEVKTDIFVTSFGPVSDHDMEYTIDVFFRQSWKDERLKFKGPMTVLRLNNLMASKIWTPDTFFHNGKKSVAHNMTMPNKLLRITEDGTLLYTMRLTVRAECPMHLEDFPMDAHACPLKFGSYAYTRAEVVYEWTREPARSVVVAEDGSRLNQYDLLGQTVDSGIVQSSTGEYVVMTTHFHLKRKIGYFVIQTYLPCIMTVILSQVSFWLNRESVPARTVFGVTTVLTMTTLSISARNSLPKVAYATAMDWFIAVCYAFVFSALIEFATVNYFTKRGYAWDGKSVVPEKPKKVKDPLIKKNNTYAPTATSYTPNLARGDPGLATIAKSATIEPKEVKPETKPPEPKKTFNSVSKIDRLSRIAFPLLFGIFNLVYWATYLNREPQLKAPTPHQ
Gamma-aminobutyric acid receptor subunit alpha-1/alpha-2/beta-2/gamma-2, sequence (P47870 whole entry): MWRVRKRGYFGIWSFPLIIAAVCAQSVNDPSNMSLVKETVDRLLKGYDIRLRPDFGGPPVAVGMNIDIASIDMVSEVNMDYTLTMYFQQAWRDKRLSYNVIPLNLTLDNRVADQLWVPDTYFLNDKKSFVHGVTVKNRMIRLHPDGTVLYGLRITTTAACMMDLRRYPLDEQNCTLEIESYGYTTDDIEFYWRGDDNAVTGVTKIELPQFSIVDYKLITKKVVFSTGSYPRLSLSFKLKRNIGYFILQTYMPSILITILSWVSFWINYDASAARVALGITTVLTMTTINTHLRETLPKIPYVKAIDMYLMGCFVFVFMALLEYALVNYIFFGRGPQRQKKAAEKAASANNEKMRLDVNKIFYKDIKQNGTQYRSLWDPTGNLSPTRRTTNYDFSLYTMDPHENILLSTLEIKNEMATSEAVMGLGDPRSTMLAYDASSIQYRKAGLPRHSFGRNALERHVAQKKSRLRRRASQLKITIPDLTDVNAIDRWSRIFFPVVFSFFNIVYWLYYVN
Gamma-aminobutyric acid receptor subunit alpha-1/alpha-2/beta-2/gamma-2, sequence (P18507 whole entry): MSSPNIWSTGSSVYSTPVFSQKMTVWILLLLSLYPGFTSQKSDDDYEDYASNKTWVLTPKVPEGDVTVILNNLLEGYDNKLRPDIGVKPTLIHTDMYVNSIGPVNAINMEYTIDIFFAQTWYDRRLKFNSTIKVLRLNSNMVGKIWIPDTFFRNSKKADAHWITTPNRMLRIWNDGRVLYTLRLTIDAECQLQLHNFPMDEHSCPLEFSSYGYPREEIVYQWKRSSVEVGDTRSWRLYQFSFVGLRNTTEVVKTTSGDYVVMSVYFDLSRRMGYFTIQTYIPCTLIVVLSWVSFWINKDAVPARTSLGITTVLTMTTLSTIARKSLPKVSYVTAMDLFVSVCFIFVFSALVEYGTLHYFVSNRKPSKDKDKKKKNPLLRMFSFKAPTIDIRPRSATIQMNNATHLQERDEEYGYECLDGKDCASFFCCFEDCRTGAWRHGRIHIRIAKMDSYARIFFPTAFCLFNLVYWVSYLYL
Gamma-aminobutyric acid receptor subunit alpha-1/alpha-2/beta-2/gamma-2, sequence (P47869 whole entry): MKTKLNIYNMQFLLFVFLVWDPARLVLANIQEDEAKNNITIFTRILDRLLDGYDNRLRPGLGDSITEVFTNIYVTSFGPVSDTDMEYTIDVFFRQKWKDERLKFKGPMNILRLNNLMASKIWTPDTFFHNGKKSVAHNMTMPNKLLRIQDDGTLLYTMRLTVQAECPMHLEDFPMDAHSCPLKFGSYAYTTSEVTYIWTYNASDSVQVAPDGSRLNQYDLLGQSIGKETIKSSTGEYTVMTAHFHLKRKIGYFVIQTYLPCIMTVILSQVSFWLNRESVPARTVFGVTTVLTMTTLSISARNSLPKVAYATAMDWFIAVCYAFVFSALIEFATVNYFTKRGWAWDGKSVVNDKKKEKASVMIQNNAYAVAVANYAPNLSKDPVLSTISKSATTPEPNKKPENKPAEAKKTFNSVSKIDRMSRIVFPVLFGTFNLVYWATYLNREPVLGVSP

In the case of `N#Cc1ccccc1-c1cc(-c2ccccn2)cn(-c2ccccc2)c1=O`, the AC50 in assay [1] and in assay [2] was > 30 µM each time.
Turning to `N=C(N)NCCCCCCC(=O)NC(O)C(=O)NCCCCNCCCN` (configuration not stated), in assay [1], the AC50 is > 30 µM.
In the case of `COc1ccc(/C=C/C(=O)Nc2ccccc2C(=O)O)cc1OC`, the AC50 in assay [3] was 18 µM; in assay [2], > 30 µM.
`C=C[C@@]1(C)CC(=O)[C@]2(O)[C@@]3(C)[C@@H](O)CCC(C)(C)[C@@H]3[C@H](OC(=O)CCN(C)C)[C@H](OC(C)=O)[C@@]2(C)O1`: the AC50 in assay [2] is > 30 µM.
As to `NCCCC(O)(P(=O)(O)O)P(=O)(O)O` [ALENDRONIC ACID], the concentration at half-maximal activity (AC50) in assay [3] was > 10 µM; in assay [4], > 30 µM.
For the compound `Nc1ccc(C(=O)O)c(O)c1` [AMINOSALICYLIC ACID], the AC50 in assay [1] and in assay [2] was > 30 µM throughout.
Regarding `CC(=O)OCC(=O)[C@@]1(O)CC[C@H]2[C@@H]3CCC4=CC(=O)CC[C@]4(C)C3=CC[C@@]21C` [ANECORTAVE ACETATE], the AC50 in assay [3] is > 10 µM.
Consider `NS(=O)(=O)c1cc2c(cc1C(F)(F)F)NC(Cc1ccccc1)NS2(=O)=O` (configuration not stated) [BENDROFLUMETHIAZIDE], for which, in assay [3], the AC50 is > 10 µM.
Take `COc1cc(OC)c(C(=O)CCCN2CCCC2)c(OC)c1` [BUFLOMEDIL]: the AC50 in assay [2] was > 30 µM.
Consider `CS(=O)(=O)OCCCCOS(C)(=O)=O` [BUSULFAN], for which the AC50 in assay [1], in assay [5] and in assay [6] was > 30 µM each time.
Regarding `CCCCCCNC(=O)n1cc(F)c(=O)[nH]c1=O` [CARMOFUR], in assay [3], the AC50 is > 30 µM.
With `C=CC1=C(C(=O)O)N2C(=O)[C@@H](NC(=O)/C(=N\OCC(=O)O)c3csc(N)n3)[C@H]2SC1` [CEFIXIME], the AC50 in assay [1] and in assay [6] was > 30 µM throughout.
Turning to `CO[C@@]1(NC(=O)Cc2cccs2)C(=O)N2C(C(=O)O)=C(COC(N)=O)CS[C@@H]21` [CEFOXITIN], the AC50 in assay [1], in assay [5] and in assay [6] was > 30 µM each time.
With `CC(C)(C)NCC(O)c1cc(Cl)c(N)c(Cl)c1` (configuration not stated) [CLENBUTEROL], the AC50 in assay [3] is 13 µM; in assay [2], > 30 µM; in assay [5] it was > 30 µM.
`CCC(C)(Oc1ccc(C2(c3ccc(OC(C)(CC)C(=O)O)cc3)CCCCC2)cc1)C(=O)O` (configuration not stated) [CLINOFIBRATE]: the AC50 in assay [2] was > 30 µM.
For `COc1cccc2c1C(=O)c1c(O)c3c(c(O)c1C2=O)C[C@@](O)(C(C)=O)C[C@@H]3O[C@H]1C[C@H](N)[C@H](O)[C@H](C)O1` [DAUNORUBICIN], the AC50 in assay [1] and in assay [6] was > 30 µM in each case.
Take `C[C@@H]1C[C@H]2[C@@H]3C[C@H](F)C4=CC(=O)C=C[C@]4(C)[C@@]3(F)[C@@H](O)C[C@]2(C)[C@H]1C(=O)CO` [DIFLUCORTOLONE]: half-maximal activity in assay [2] (AC50) was put at 2.6 µM.
Consider `CCCCC[C@H](O)/C=C/[C@H]1[C@H](O)CC(=O)[C@@H]1C/C=C\CCCC(=O)O` [DINOPROSTONE], for which the AC50 in assay [2] and in assay [7] was > 30 µM in each case.
As to `COC(=O)N[C@@H](C)CNc1nccc(-c2cn(C(C)C)nc2-c2cc(Cl)cc(NS(C)(=O)=O)c2F)n1` [ENCORAFENIB], the AC50 in assay [3] and in assay [2] was > 30 µM throughout.
As for `Clc1ccc2c(c1)C(c1ccccc1)=NCc1nncn1-2` [ESTAZOLAM], in assay [3], the AC50 is > 10 µM.
Regarding `O=C(O)c1ccccc1Nc1cccc(C(F)(F)F)c1` [FLUFENAMIC ACID], the AC50 in assay [3] was 1 µM; in assay [1] it was > 30 µM; in assay [4], > 30 µM.
Take `Nc1ccn([C@@H]2O[C@H](CO)[C@@H](O)C2(F)F)c(=O)n1` [GEMCITABINE]: the AC50 in assay [3] was > 10 µM.
Turning to `C#C[C@]1(O)CC[C@H]2[C@@H]3CCC4=CC(=O)CCC4=C3C=C[C@@]21CC` [GESTRINONE], the AC50 in assay [1] was > 30 µM.
On to `CCCCCCOC(=O)CCC(=O)CN` [HEXAMINOLEVULINATE], for which the AC50 in assay [1] and in assay [2] was > 30 µM each time.
For the compound `Nc1nc2c(c(=O)[nH]1)N(C=O)C(CNc1ccc(C(=O)N[C@@H](CCC(=O)O)C(=O)O)cc1)CN2` (some centres not stated) [LEUCOVORIN], the AC50 in assay [1], in assay [2], in assay [5] and in assay [6] was > 30 µM throughout.
For `CC#CCn1c(N2CCC[C@@H](N)C2)nc2c1c(=O)n(Cc1nc(C)c3ccccc3n1)c(=O)n2C` [LINAGLIPTIN], the AC50 in assay [4] is > 30 µM; in assay [7], > 10 µM.
For `CC(C)OC(=O)C(C(=O)OC(C)C)=C1SC=CS1` [MALOTILATE], in assay [2], the AC50 was > 30 µM.
For the compound `CC(=O)Nc1c(I)c(C(=O)N[C@H]2C(O)O[C@H](CO)[C@@H](O)[C@@H]2O)c(I)c(N(C)C(C)=O)c1I` (some centres not stated) [METRIZAMIDE], in assay [3], the AC50 is > 10 µM.
Same read-out and setting: the figure for `CC(=O)O[C@H]1C[C@@H]2CC[C@@H]3[C@H](CC[C@@]4(C)[C@H]3C[C@H]([N+]3(C)CCCCC3)[C@@H]4OC(C)=O)[C@@]2(C)C[C@@H]1[N+]1(C)CCCCC1` [PANCURONIUM] is > 10 µM.
Consider `CCn1cc(C(=O)O)c(=O)c2cc(F)c(N3CCN(C)CC3)cc21` [PEFLOXACIN], for which the AC50 in assay [1], in assay [5] and in assay [6] was > 30 µM in each case.
With `CC1(C)C(C=C(Cl)Cl)C1C(=O)OCc1cccc(Oc2ccccc2)c1` (configuration not stated) [PERMETHRIN], the AC50 in assay [3] is > 10 µM.
The same measure, in the same setting: the figure for `CC(=O)c1ccc2c(c1)N(CCCN1CCC(CCO)CC1)c1ccccc1S2` [PIPERACETAZINE] is 0.18 µM.
In the case of `C[n+]1ccccc1/C=N/O` [PRALIDOXIME], the AC50 in assay [1] and in assay [5] was > 30 µM in each case.
Turning to `CCCNC(C)C(=O)Nc1ccccc1C` (configuration not stated) [PRILOCAINE], the AC50 in assay [1], in assay [5] and in assay [6] was > 30 µM throughout.
In the case of `NC(=O)CCC/N=C(\c1ccc(Cl)cc1)c1cc(F)ccc1O` [PROGABIDE], the AC50 was > 10 µM in assay [3] and > 30 µM in assay [1].
With `CCN(CC)CC(=O)Oc1ccc(NC(C)=O)cc1` [PROPACETAMOL], the AC50 in assay [2] is > 30 µM.
With `Cc1cc2nc3c(=O)[nH]c(=O)nc-3n(C[C@H](O)[C@H](O)[C@H](O)COP(=O)(O)O)c2cc1C` [RIBOFLAVIN 5'-PHOSPHATE], the results for the AC50 in assay [1] and in assay [2] were 2.9 µM and > 30 µM, respectively.
For `CC(NCCc1ccc(O)cc1)C(O)c1ccc(O)cc1` (configuration not stated) [RITODRINE], the AC50 in assay [3] is 10 µM and 1.54 µM.
Turning to `COc1c(O[C@@H]2O[C@H](CO)[C@@H](O)[C@H](O)[C@H]2O)cc2c(c1OC)-c1ccc(SC)c(=O)cc1[C@@H](NC(C)=O)CC2` [THIOCOLCHICOSIDE], the concentration at half-maximal activity (AC50) in assay [1] was > 30 µM.
Consider `Cc1cccc(N(C)C(=S)Oc2ccc3ccccc3c2)c1` [TOLNAFTATE], for which the AC50 in assay [3] is > 30 µM.
With `COc1ccc(C(CN(C)C)C2(O)CCCCC2)cc1` (configuration not stated) [VENLAFAXINE], the AC50 in assay [1] is > 30 µM.
Take `C=CC(N)CCC(=O)O` (configuration not stated) [VIGABATRIN]: in assay [3], the half-maximal activity concentration (AC50) is > 10 µM.
Consider `N#C[C@@H]1CCCN1C(=O)CNC12CC3CC(CC(O)(C3)C1)C2` [VILDAGLIPTIN], for which the AC50 in assay [7] is > 10 µM.
With COLISTIN, the AC50 in assay [1] is > 30 µM.

What is called AC50 is the midpoint of the concentration-response curve, whichever way the signal moves. Low values mean greater potency, high ones weaker potency.
